Experiments:
[1] = Cytotoxicity against human Nthy-ori 3-1 cells after 10 days by MTT assay; assay type: cell-based
[2] = target: Proto-oncogene tyrosine-protein kinase receptor Ret (Homo sapiens, UniProt P07949, V804M); test: Inhibition of human Ret V804M mutant by radiometric assay in presence of [gamma-33P]-ATP
[3] = tested on: Proto-oncogene tyrosine-protein kinase receptor Ret (Homo sapiens), P07949 [C634W]; settings: TT
Description: Inhibition of RET C634W mutant in human TT cells assessed as cell growth inhibition after 10 days by MTT assay

[4] = tested on: Proto-oncogene tyrosine-protein kinase receptor Ret (Homo sapiens), P07949 [V804M]; settings: BaF3
[5] = target: T1, Proto-oncogene tyrosine-protein kinase receptor Ret (Homo sapiens, UniProt P07949); settings: BaF3
Description: Inhibition of wild type TEL-fused RET (unknown origin) expressed in mouse BA/F3 cells assessed as cell growth inhibition after 48 hrs by MTT assay

[6] = target: T1, Proto-oncogene tyrosine-protein kinase receptor Ret; test: Inhibition of human wild type RET by radiometric assay in presence of [gamma-33P]-ATP
[7] = Cytotoxicity against mouse BAF3 cells after 48 hrs by MTT assay; assay type: cell-based

Sequence of Proto-oncogene tyrosine-protein kinase receptor Ret (Homo sapiens, UniProt P07949, V804M) (P07949 29-1114 V804M limits assumed): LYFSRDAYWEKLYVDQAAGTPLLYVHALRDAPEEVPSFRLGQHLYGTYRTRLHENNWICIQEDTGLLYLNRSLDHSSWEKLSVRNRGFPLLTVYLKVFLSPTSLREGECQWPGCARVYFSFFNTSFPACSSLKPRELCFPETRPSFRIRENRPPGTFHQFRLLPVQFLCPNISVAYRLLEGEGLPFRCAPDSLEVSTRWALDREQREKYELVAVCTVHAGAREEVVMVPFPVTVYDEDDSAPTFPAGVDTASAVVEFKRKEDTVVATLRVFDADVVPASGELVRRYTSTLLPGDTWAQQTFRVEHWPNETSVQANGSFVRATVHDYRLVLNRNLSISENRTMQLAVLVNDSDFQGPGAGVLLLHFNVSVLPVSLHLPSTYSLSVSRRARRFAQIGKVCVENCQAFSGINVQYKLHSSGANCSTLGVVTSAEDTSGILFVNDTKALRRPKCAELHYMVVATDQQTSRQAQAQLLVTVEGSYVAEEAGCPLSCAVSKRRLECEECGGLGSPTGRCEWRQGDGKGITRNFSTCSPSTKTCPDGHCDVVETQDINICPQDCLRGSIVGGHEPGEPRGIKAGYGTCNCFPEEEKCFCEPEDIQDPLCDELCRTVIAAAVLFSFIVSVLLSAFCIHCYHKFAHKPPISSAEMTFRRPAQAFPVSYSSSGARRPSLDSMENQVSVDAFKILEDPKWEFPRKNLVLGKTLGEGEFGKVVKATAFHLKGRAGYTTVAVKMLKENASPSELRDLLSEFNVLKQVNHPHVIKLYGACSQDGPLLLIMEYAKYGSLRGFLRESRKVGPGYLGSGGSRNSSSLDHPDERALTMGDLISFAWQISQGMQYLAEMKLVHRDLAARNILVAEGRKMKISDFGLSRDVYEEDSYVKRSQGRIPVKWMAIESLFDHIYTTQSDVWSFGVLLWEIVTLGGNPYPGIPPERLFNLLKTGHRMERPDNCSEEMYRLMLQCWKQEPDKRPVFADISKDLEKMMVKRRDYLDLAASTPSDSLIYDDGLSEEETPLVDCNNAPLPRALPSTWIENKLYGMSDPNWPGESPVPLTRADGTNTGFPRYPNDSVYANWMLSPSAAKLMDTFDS
T1 sequence (P07949 whole entry): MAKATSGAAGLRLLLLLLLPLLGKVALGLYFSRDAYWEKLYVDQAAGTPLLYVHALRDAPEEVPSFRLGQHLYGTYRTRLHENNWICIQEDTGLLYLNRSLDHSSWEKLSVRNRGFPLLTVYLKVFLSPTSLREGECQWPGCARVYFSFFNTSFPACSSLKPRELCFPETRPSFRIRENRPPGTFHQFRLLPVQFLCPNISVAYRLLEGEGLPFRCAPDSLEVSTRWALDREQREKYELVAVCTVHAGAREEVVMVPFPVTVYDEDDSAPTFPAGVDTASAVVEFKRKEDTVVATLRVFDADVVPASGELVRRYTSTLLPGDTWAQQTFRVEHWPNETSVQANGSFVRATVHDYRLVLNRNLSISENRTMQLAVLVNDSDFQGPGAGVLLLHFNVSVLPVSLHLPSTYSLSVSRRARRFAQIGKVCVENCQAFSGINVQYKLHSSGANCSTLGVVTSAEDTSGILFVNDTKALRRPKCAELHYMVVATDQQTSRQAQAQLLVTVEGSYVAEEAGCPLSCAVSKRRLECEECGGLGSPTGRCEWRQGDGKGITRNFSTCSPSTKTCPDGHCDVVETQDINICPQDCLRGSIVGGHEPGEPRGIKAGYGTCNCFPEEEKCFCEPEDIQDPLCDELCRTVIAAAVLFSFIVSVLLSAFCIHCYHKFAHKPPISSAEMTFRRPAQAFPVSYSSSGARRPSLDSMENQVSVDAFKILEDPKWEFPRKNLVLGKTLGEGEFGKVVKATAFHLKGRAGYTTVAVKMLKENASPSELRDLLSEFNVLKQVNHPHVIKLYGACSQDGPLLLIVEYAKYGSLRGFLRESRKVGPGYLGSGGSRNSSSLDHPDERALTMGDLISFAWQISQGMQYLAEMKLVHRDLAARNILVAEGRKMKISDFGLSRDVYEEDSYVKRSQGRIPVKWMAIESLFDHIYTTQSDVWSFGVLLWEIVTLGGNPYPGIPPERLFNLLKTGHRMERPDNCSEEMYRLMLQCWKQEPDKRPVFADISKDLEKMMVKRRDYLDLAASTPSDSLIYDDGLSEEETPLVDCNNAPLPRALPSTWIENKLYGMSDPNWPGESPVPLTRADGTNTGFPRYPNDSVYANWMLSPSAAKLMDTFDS
Sequence of Proto-oncogene tyrosine-protein kinase receptor Ret (Homo sapiens), P07949 [C634W] (P07949 whole entry C634W): as the sequence (P07949 whole entry) above, with C634W counted along it
Sequence of Proto-oncogene tyrosine-protein kinase receptor Ret (Homo sapiens), P07949 [V804M] (P07949 whole entry V804M): as the sequence (P07949 whole entry) above, with V804M counted along it

Structure (SMILES)	GI50 at 240 h [1] [µM]	IC50 [2] [µM]	GI50 [3] [µM]	GI50 [4] [µM]	GI50 [5] [µM]	IC50 [6] [µM]	GI50 at 48 h [7] [µM]
CC(C)(O)Cn1nc(-c2cc(C3CC3)on2)c2c(N)ncnc21	2.82	0.217	4.25	6.75	1.77	0.068	> 10
Cn1nc(-c2cc(C3CC3)on2)c2c(N)ncnc21	28.7	0.182	3.51	5.56	2.67	0.027	> 10
CC(C)n1nc(C2=NOC(c3ccccc3)C2)c2c(N)ncnc21 (stereo unspecified)	18.9	5.68	> 10	> 10	6.24	0.583	> 10
CC(C)n1nc(-c2cc(-c3ccccc3)on2)c2c(N)ncnc21	5.72	–	> 10	4.97	3.46	0.19	> 10
CC(C)n1nc(-c2cc(-c3ccc(F)cc3)on2)c2c(N)ncnc21	9.77	–	> 10	> 10	> 10	0.15	> 10
CC(C)n1nc(/C=N/O)c2c(N)ncnc21	107	3.68	> 10	> 10	> 10	4.9	> 10
CC(C)n1nc(-c2cc(-c3ccccn3)on2)c2c(N)ncnc21	1.63	5.88	9.26	0.7	1.11	0.91	5.3
Nc1ncnc2[nH]nc(-c3cc(C4CC4)on3)c12	0.51	0.354	> 10	> 10	5.34	0.052	> 10
Nc1ncnc2c1c(-c1cc(C3CC3)on1)nn2C1CCCCC1	32.5	0.014	0.29	2	0.52	0.002	> 10
CC(C)n1nc(-c2cc(C3CCCC3)on2)c2c(N)ncnc21	11.5	1.57	> 10	> 10	7.12	0.241	> 10
CC(C)n1nc(/C=N/OCc2ccccc2)c2c(N)ncnc21	9.85	–	9.27	> 10	7.41	8.33	> 10
Nc1ncnc2c1c(-c1cc(C3CC3)on1)nn2Cc1ccccc1	39.6	0.557	> 10	> 10	> 10	0.074	> 10
